Measured values reported in PubChem BioAssay (NCI).
Several values for one entry are separate records, joined by “and”; a condition that tells them apart may be missing. Equal values may be shown once.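 Test compounds were applied to cells in 96-well plates for 48 hours at 5 doses. Here, GI50 denotes the concentration required for 50% inhibition of growth. Definition used: TGI = concentration required for complete inhibition of growth.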

Columns and labels:
Assay in all cases: growth of human tumour cells (NCI), 48 h
CAKI-1 renal = system: CAKI-1 renal
HCC-2998 colon = system: HCC-2998 colon
HL-60(TB) leukemia = system: HL-60(TB) leukemia
MDA-MB-231 breast = system: MDA-MB-231 breast
NCI-H226 lung = system: NCI-H226 lung
OVCAR-5 ovarian = system: OVCAR-5 ovarian
OVCAR-8 ovarian = system: OVCAR-8 ovarian
RPMI-8226 leukemia = system: RPMI-8226 leukemia
SF-295 CNS = system: SF-295 CNS
SR leukemia = system: SR leukemia

Compound	GI50 (CAKI-1 renal)	TGI (CAKI-1 renal)	GI50 (HCC-2998 colon)	TGI (HCC-2998 colon)	GI50 (HL-60(TB) leukemia)	TGI (HL-60(TB) leukemia)	GI50 (MDA-MB-231 breast)	TGI (MDA-MB-231 breast)	GI50 (NCI-H226 lung)	TGI (NCI-H226 lung)	GI50 (OVCAR-5 ovarian)	TGI (OVCAR-5 ovarian)	GI50 (OVCAR-8 ovarian)	TGI (OVCAR-8 ovarian)	GI50 (RPMI-8226 leukemia)	TGI (RPMI-8226 leukemia)	GI50 (SF-295 CNS)	TGI (SF-295 CNS)	GI50 (SR leukemia)	TGI (SR leukemia)
O=C1OCC2=C1C(c1cccc(Cl)c1)c1cc3c(cc1N2CCO)OCCO3 (configuration not stated)	0.0697 µM	> 55.6 µM	0.157 µM	2.91 µM	0.0472 µM	0.346 µM	0.334 µM	4.26 µM	0.0845 µM	1.85 µM	0.539 µM	> 100 µM	0.176 µM	4.33 µM	0.129 µM	19.2 µM	0.0403 µM	3.25 µM	0.0581 µM	67.4 µM
CC(C)(C)C(=O)OCC1C(=O)OCC1C(=O)N1Cc2cc3ccccc3nc2C1 (configuration not stated)	–	3.87 µM	–	29.3 µM	–	3.13 µM	–	14.4 µM	–	14 µM	–	23.1 µM	–	14.8 µM	–	4.82 µM	–	27.4 µM	–	3.77 µM
CC1=C(c2cccc(O)c2)[C@H](c2ccc(OCCN3CC(CF)C3)cc2)Oc2ccc(O)cc21	3.13 µM	12.9 µM	3.84 µM	15.4 µM	4.39 µM	22.2 µM	4.87 µM	17.4 µM	10.7 µM	28.2 µM	12.4 µM	25 µM	12.9 µM	32.6 µM	8.11 µM	27.1 µM	4.27 µM	16.5 µM	3.76 µM	36.2 µM
N#C/C(=C\c1ccsc1)c1nc2ccccc2o1	22.3 µM	> 100 µM	> 100 µM	> 100 µM	> 100 µM	> 100 µM	22.4 µM	> 100 µM	> 100 µM	> 100 µM	> 100 µM	> 100 µM	> 100 µM	> 100 µM	61.7 µM	> 100 µM	31.5 µM	> 100 µM	> 100 µM	> 100 µM
Cc1cc2c(C(C)C)c(O)c(O)cc2c(O)c1-c1c(C)cc2c(C(C)C)c(O)c(O)cc2c1O	19.2 µM	82.6 µM	16.4 µM	30 µM	9.07 µM	34.1 µM	13.5 µM	34.8 µM	16.5 µM	34.9 µM	17.9 µM	36.5 µM	15.2 µM	41.1 µM	13.1 µM	39.3 µM	22.5 µM	58 µM	8.24 µM	28.4 µM
COc1ccc2c(c1)NC1=C(C(=O)OC1)C2c1cc(OC)c2c(c1)OCO2 (configuration not stated)	0.0502 µM	> 100 µM	0.0297 µM	–	0.0209 µM	> 100 µM	0.0342 µM	> 100 µM	< 0.0153 µM	–	0.0817 µM	> 100 µM	< 0.0185 µM	> 100 µM	< 0.0198 µM	> 100 µM	< 0.0155 µM	> 100 µM	< 0.0191 µM	> 100 µM
O=c1cnn(C2OC(CO)C(O)C2O)c(=S)[nH]1 (configuration not stated)	–	> 100 µM	–	> 100 µM	–	> 100 µM	–	> 100 µM	–	> 100 µM	–	> 100 µM	–	> 100 µM	–	> 29.8 µM	–	> 100 µM	–	19.2 µM
COc1cc(OC)c2nc(C)c3c(c2c1)SCC3	–	70.9 µM	–	> 100 µM	–	> 100 µM	–	44.7 µM	–	43.8 µM	–	80.2 µM	–	35.4 µM	–	64.4 µM	–	65.9 µM	–	52.2 µM
Cn1ncnc1[C@H]1c2n[nH]c(=O)c3cc(F)cc(c23)N[C@@H]1c1ccc(F)cc1	5.89 µM	> 100 µM	> 100 µM	> 100 µM	10.3 µM	> 100 µM	> 100 µM	> 100 µM	> 100 µM	> 100 µM	> 100 µM	> 100 µM	> 100 µM	> 100 µM	> 100 µM	> 100 µM	0.44 µM	> 19.9 µM	0.0417 µM	> 100 µM
Cc1ccc(S(=O)(=O)c2c(COC(=O)c3cccc(C)c3)c(-c3ccccc3)nn2C)cc1	> 100 µM	> 100 µM	> 100 µM	> 100 µM	> 100 µM	> 100 µM	> 100 µM	> 100 µM	> 100 µM	> 100 µM	> 100 µM	> 100 µM	> 100 µM	> 100 µM	> 100 µM	> 100 µM	> 100 µM	> 100 µM	> 100 µM	> 100 µM
O=C(Nc1cccc(-n2cc(-c3ccncc3)c(-c3ccc(Cl)c(O)c3)n2)c1)Nc1cc(C(F)(F)F)cc(C(F)(F)F)c1	0.867 µM	2.88 µM	0.977 µM	2.04 µM	1.13 µM	6.63 µM	0.768 µM	1.66 µM	1.2 µM	5.14 µM	0.846 µM	1.88 µM	0.563 µM	5.92 µM	0.434 µM	10.6 µM	0.618 µM	1.65 µM	0.876 µM	3.22 µM
COc1cccc(N2C(=O)C3c4[nH]c5ccccc5c4C4CCCC4C3C2=O)c1 (configuration not stated)	–	> 10 µM	–	> 10 µM	–	> 10 µM	–	5.63 µM	–	7.59 µM	–	> 10 µM	–	> 10 µM	–	> 10 µM	–	> 10 µM	–	4.09 µM
Cc1c(Cl)cccc1C(=O)Nc1nc2c(s1)CN(C(=O)c1ccc(C(F)(F)F)cc1)CC2	0.0711 µM	> 50 µM	0.2 µM	> 50 µM	0.108 µM	1.25 µM	0.344 µM	> 50 µM	0.157 µM	–	0.311 µM	> 50 µM	0.241 µM	> 35.3 µM	0.198 µM	> 34.9 µM	0.0224 µM	> 50 µM	0.0294 µM	> 50 µM
COc1cccc(-c2c[nH]c3c(N/N=C/c4ccncc4)ncnc23)c1	1.84 µM	> 25 µM	4.36 µM	15.8 µM	1.7 µM	7.35 µM	3.83 µM	> 22.9 µM	1.75 µM	> 16 µM	4.93 µM	17.2 µM	2.57 µM	11.8 µM	5.62 µM	14.4 µM	3.5 µM	> 25 µM	0.872 µM	> 24.1 µM
NCCCC[C@@H]1NC(=O)[C@H]2CCCN2C(=O)[C@H](Cc2ccccc2)CNC(=O)[C@H](Cc2ccccc2)NC1=O	> 37.5 µM	> 37.5 µM	> 37.5 µM	> 37.5 µM	> 11.3 µM	> 37.5 µM	> 37.5 µM	> 37.5 µM	> 37.5 µM	> 37.5 µM	> 37.5 µM	> 37.5 µM	> 37.5 µM	> 37.5 µM	> 37.5 µM	> 37.5 µM	> 37.5 µM	> 37.5 µM	31.9 µM	> 37.5 µM
COc1ccc2c(c1)c(CC(=O)[Se]C)c(C)n2C(=O)c1ccc(Cl)cc1	> 0.266 µM	> 0.515 µM	> 0.673 µM	> 1 µM	> 0.398 µM	> 0.779 µM	> 0.383 µM	> 0.637 µM	–	> 0.27 µM	> 0.424 µM	> 1 µM	> 0.346 µM	> 0.733 µM	> 0.542 µM	> 0.942 µM	> 0.365 µM	> 0.58 µM	> 0.507 µM	> 1 µM
CC1=C(C(=O)Nc2ccc3n[nH]c(C)c3c2)C(c2ccc(C(F)(F)F)cc2)CC(=O)N1 (configuration not stated)	> 18.8 µM	> 25 µM	> 25 µM	> 25 µM	> 25 µM	> 25 µM	15.9 µM	> 25 µM	0.709 µM	> 17.7 µM	16.2 µM	> 25 µM	> 25 µM	> 25 µM	> 25 µM	> 25 µM	16.4 µM	> 25 µM	> 16.4 µM	> 25 µM
Nc1ncnc2c1N=C(c1ccc3c(c1)OCO3)CC(c1ccc([N+](=O)[O-])cc1)N2 (configuration not stated)	25.5 µM	> 100 µM	66.1 µM	> 100 µM	13.1 µM	> 100 µM	38.9 µM	> 100 µM	> 100 µM	> 100 µM	> 100 µM	> 100 µM	55.9 µM	> 100 µM	0.194 µM	49 µM	64.2 µM	> 100 µM	2.37 µM	67.9 µM
CN1CCN(C(=O)C(C)(C)c2ccc(C(=O)Nc3cn4cc(-c5ccncc5)ccc4n3)cc2)CC1	0.193 µM	> 100 µM	0.502 µM	9.7 µM	0.371 µM	3.55 µM	0.413 µM	> 54.1 µM	0.32 µM	2.51 µM	0.405 µM	7.16 µM	0.347 µM	> 100 µM	0.201 µM	1.35 µM	0.482 µM	30.8 µM	0.135 µM	4.7 µM
COc1ccc(CCN2CC=Cn3c2nc2ccccc2c3=O)cc1	0.0576 µM	> 100 µM	0.0332 µM	35.5 µM	< 0.0116 µM	0.0648 µM	0.0558 µM	> 100 µM	0.101 µM	> 85.8 µM	0.217 µM	> 100 µM	0.054 µM	> 41 µM	0.0415 µM	43 µM	0.0269 µM	> 100 µM	0.0354 µM	> 100 µM
Cc1ccccc1OCC(O)CN1CCN(c2ccc(Cl)cc2)CC1 (configuration not stated)	12.5 µM	26.6 µM	16.7 µM	31.6 µM	17.6 µM	56 µM	14.4 µM	29.8 µM	18.6 µM	35.9 µM	17.4 µM	34.5 µM	21 µM	44.4 µM	16.3 µM	40.8 µM	14.4 µM	29.6 µM	14.3 µM	40.1 µM
COc1cc2nc(N3CCCC3)nc(NCc3ccccc3)c2cc1OC	1.57 µM	3.14 µM	2.13 µM	4.25 µM	2.07 µM	4.33 µM	2.1 µM	4.48 µM	17.3 µM	40.4 µM	4.63 µM	16.8 µM	3.2 µM	13.7 µM	2.44 µM	5.99 µM	1.84 µM	3.46 µM	1.53 µM	5.3 µM
COC1CC(O[C@H]2CC[C@@]3(C)[C@H](CC[C@@H]4[C@@H]3CC[C@]3(C)[C@@H](C5=CC(=O)OC5)[C@@H](OC(C)=O)C[C@]43O)C2)OC(C)C1O (some centres not stated)	< 0.01 µM	< 0.01 µM	< 0.01 µM	< 0.0187 µM	< 0.01 µM	< 0.0331 µM	< 0.01 µM	< 0.0155 µM	< 0.01 µM	< 0.01 µM	< 0.01 µM	< 0.01 µM	< 0.01 µM	< 0.01 µM	< 0.01 µM	–	< 0.01 µM	< 0.01 µM	< 0.01 µM	–
CC1=NN(C(=O)c2ccccc2O)C(=O)/C1=C/c1ccc(O)cc1	–	> 100 µM	–	> 100 µM	–	> 41.1 µM	–	> 100 µM	–	41.2 µM	–	> 100 µM	–	> 100 µM	–	> 100 µM	–	> 100 µM	–	> 100 µM
C[C@H]1CC[C@@]2(NC1)O[C@H]1C[C@H]3[C@@H]4CC[C@H]5C[C@@H](O)CC[C@]5(C)[C@H]4CC[C@]3(C)[C@H]1[C@@H]2C	12.9 µM	34.5 µM and > 100 µM	9.32 µM	22 µM and > 100 µM	42.5 µM	50 µM and > 100 µM	7.26 µM	15.9 µM and > 100 µM	13.8 µM	35.8 µM and > 100 µM	8.71 µM	18.4 µM and > 100 µM	–	50 µM and > 100 µM	7.82 µM	31.4 µM and > 100 µM	14.8 µM	42.9 µM and > 100 µM	–	> 100 µM
Cc1c(C(=O)Nc2ccccc2)sc2ncn(Cc3cccc(Cl)c3)c(=O)c12	15.4 µM	84.5 µM	4.67 µM	67.8 µM	16.3 µM	> 100 µM	12.1 µM	38.2 µM	10.6 µM	41.6 µM	27 µM	94.5 µM	28.7 µM	89.1 µM	10.4 µM	> 100 µM	32.4 µM	> 100 µM	14.8 µM	53 µM
